In patent US20240109917A1 (ACTELION PHARMACEUTICALS LTD, priority 2020, published 2024):

Legend:
[1] = target: Tb-labeled inactive PDGFRβ (Homo sapiens (Human), UniProt P09619); assay: PDGFRβ LanthaScreen Assay; type: binding; conditions: read-out: PDGFR Lantha IC50
[2] = target: His6-TEV-PDGFRβ (557-1016) (Homo sapiens (Human), UniProt P09619); assay: PDGFRβ HTRF Assay; type: biochemical; conditions: read-out: PDGFR HTRF IC50
How it was run: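 Human PDGFRβ (557-1016) pre-incubated with compound for 30 min at RT in pH 7.5 HEPES/MgCl2/EGTA/Brij-35/DTT buffer. Reaction started with ATP and TK-biotin peptide, run 3 h at RT, then quenched with EDTA-containing Eu-cryptate antibody/streptavidin-XL665. HTRF 665/620 nm ratio read after 60 min; percent inhibition relative to DMSO and 10 μM imatinib controls.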

Sequence of His6-TEV-PDGFRβ (557-1016) (P09619 557-1016): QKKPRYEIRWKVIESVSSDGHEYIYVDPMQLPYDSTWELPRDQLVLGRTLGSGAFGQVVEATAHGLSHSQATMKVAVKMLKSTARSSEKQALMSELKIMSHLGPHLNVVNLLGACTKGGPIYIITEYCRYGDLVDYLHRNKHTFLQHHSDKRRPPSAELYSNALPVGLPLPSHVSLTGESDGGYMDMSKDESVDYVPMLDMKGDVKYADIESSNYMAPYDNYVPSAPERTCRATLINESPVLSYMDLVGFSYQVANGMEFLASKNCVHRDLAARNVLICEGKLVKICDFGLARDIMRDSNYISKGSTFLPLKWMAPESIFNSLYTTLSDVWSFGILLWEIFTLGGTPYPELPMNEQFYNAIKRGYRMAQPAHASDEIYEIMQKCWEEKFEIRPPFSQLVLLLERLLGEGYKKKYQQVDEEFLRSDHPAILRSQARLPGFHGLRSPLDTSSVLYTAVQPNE
Sequence of Tb-labeled inactive PDGFRβ (P09619 33-1106): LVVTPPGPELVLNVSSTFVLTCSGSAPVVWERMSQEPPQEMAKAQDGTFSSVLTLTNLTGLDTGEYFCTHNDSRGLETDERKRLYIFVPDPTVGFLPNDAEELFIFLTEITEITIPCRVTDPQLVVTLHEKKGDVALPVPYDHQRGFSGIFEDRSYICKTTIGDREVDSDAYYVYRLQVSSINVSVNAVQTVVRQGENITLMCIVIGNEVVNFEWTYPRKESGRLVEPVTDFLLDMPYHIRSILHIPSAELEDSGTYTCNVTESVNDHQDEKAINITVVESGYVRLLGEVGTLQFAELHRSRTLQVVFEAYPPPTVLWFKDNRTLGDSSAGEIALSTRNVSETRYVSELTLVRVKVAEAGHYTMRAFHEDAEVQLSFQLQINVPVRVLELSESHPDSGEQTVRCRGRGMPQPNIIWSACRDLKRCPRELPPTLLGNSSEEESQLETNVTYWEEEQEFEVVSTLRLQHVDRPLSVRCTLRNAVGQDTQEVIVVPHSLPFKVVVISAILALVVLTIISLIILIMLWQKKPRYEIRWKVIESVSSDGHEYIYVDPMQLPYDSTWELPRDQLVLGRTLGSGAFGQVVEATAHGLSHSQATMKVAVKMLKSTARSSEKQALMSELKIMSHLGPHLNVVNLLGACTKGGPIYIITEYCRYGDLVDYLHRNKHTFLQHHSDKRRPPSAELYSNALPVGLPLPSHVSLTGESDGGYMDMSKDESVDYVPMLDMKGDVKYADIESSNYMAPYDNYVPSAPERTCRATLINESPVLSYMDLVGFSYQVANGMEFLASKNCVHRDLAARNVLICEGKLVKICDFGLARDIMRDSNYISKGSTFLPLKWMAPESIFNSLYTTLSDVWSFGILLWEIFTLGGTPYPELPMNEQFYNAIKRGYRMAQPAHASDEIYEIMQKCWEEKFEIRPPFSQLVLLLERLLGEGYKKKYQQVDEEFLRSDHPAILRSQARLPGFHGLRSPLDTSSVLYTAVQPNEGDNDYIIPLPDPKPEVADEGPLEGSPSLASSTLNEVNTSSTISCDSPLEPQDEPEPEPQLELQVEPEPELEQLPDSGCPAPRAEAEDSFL

SMILES | IC50 [1] [nM] | IC50 [2] [nM]
Cc1ncc(NC(=O)CN2CC3CCC(C2)O3)cc1NC(=O)c1cnn2cc(-c3cc[nH]c3)sc12 [Example 366, N-(5-(2-(8-oxa-3-azabicyclo[3.2.1]octan-3-yl)acetamido)-2-methylpyridin-3-yl)-2-(1H-pyrrol-3-yl)pyrazolo[5,1-b]thiazole-7-carboxamide] | 2.5 | 0.3
COc1ccncc1-c1cn2ncc(C(=O)Nc3cc(NC(=O)CN4C[C@H](C)O[C@@H](C)C4)cnc3C)c2s1 (relative stereo) [Example 385, N-(5-(2-(trans-2,6-dimethylmorpholino)acetamido)-2-methylpyridin-3-yl)-2-(4-methoxypyridin-3-yl)pyrazolo[5,1-b]thiazole-7-carboxamide] | 4.9 | 0.8
Cc1ncc(NC(=O)[C@@H]2CCCN2C(C)C)cc1NC(=O)c1cnn2cc(-c3cnn4c3OCCC4)sc12 [Example 346, (S)-2-(6,7-dihydro-5H-pyrazolo[5,1-b][1,3]oxazin-3-yl)-N-(5-(1-isopropylpyrrolidine-2-carboxamido)-2-methylpyridin-3-yl)pyrazolo[5,1-b]thiazole-7-carboxamide] | 6.5 | 0.5
Cc1ncc(NC(=O)C2CCN(C(C)C)C2)cc1NC(=O)c1cnn2cc(-c3cnn(C)c3C)sc12 (centres unmarked) [Example 356, 2-(1,5-dimethyl-1H-pyrazol-4-yl)-N-(5-(1-isopropylpyrrolidine-3-carboxamido)-2-methylpyridin-3-yl)pyrazolo[5,1-b]thiazole-7-carboxamide] | 17.9 | 0.5
CCn1nccc1-c1cn2ncc(C(=O)Nc3cc(NC(=O)CN4CC(C)(C)C4)cnc3C)c2s1 [Example 388, N-(5-(2-(3,3-dimethylazetidin-1-yl)acetamido)-2-methylpyridin-3-yl)-2-(1-ethyl-1H-pyrazol-5-yl)pyrazolo[5,1-b]thiazole-7-carboxamide] | 7.4 | 0.5
Cc1ncc(NC(=O)CN2C[C@H](C)O[C@@H](C)C2)cc1NC(=O)c1cnn2cc(-c3cnn(C4CC4)c3)sc12 (relative stereo) [Example 382, 2-(1-cyclopropyl-1H-pyrazol-4-yl)-N-(5-(2-(trans-2,6-dimethylmorpholino)acetamido)-2-methylpyridin-3-yl)pyrazolo[5,1-b]thiazole-7-carboxamide] | 5.3 | 0.6
Cc1ncc(NC(=O)CN2CCC[C@@H]2C)cc1NC(=O)c1cnn2cc(-c3ccnc(N4CCOCC4)c3)sc12 [Example 352, (S)—N-(2-methyl-5-(2-(2-methylpyrrolidin-1-yl)acetamido)pyridin-3-yl)-2-(2-morpholinopyridin-4-yl)pyrazolo[5,1-b]thiazole-7-carboxamide] | 4.7 | 0.3
COCCn1cc(-c2cn3ncc(C(=O)Nc4cc(NC(=O)CN5CCC(C6CC6)C5)cnc4C)c3s2)cn1 (centres unmarked) [Example 341, N-(5-(2-(3-cyclopropylpyrrolidin-1-yl)acetamido)-2-methylpyridin-3-yl)-2-(1-(2-methoxyethyl)-1H-pyrazol-4-yl)pyrazolo[5,1-b]thiazole-7-carboxamide] | 4.6 | 0.4
COCCn1cc(-c2cn3ncc(C(=O)Nc4cc(NC(=O)CN5CCCC56CCC6)cnc4C)c3s2)cn1 [Example 332, N-(5-(2-(5-azaspiro[3.4]octan-5-yl)acetamido)-2-methylpyridin-3-yl)-2-(1-(2-methoxyethyl)-1H-pyrazol-4-yl)pyrazolo[5,1-b]thiazole-7-carboxamide] | 4.1 | 0.6
COc1cc(-c2cn3ncc(C(=O)Nc4cc(NC(=O)CN5CC(C)(C)C5)cnc4C)c3s2)c(OC)nn1 [Example 393, 2-(3,6-dimethoxypyridazin-4-yl)-N-(5-(2-(3,3-dimethylazetidin-1-1)acetamido)-2-methylpyridin-3-yl)pyrazolo[5,1-b]thiazole-7-carboxamide] | 5.1 | 0.7
COCCCc1cn2ncc(C(=O)Nc3cc(C(=O)NCCN4CCCC4(C)C)cnc3C)c2s1 [Example 360, N-(5-((2-(2,2-dimethylpyrrolidin-1-yl)ethyl)carbamoyl)-2-methylpyridin-3-yl)-2-(3-methoxypropyl)pyrazolo[5,1-b]thiazole-7-carboxamide] | 100 | 4.9
COc1ncccc1-c1cn2ncc(C(=O)Nc3cc(NC(=O)CN4CC5(COC5)C4)cnc3C)c2s1 [Example 404, N-(5-(2-(2-oxa-6-azaspiro[3.3]heptan-6-yl)acetamido)-2-methylpyridin-3-yl)-2-(2-methoxypyridin-3-yl)pyrazolo[5,1-b]thiazole-7-carboxamide] | 4.9 | 0.3
COc1ncccc1-c1cn2ncc(C(=O)Nc3cc(NC(=O)CN4CC(C)C4)cnc3C)c2s1 [Example 405, 2-(2-methoxypyridin-3-yl)-N-(2-methyl-5-(2-(3-methylazetidin-1-yl)acetamido)pyridin-3-yl)pyrazolo[5,1-b]thiazole-7-carboxamide] | 3.9 | 0.2
Cc1ncc(NC(=O)CN2CCC3(CC3)C2)cc1NC(=O)c1cnn2cc(-c3cnn(CCO)c3)sc12 [Example 32, N-(5-(2-(5-azaspiro[2.4]heptan-5-yl)acetamido)-2-methylpyridin-3-yl)-2-(1-(2-hydroxyethyl)-1H-pyrazol-4-yl)pyrazolo[5,1-b]thiazole-7-carboxamide] | 5.5 | 0.7
COc1cnccc1-c1cn2ncc(C(=O)Nc3cc(NC(=O)CN4CC(C)(C)C4)cnc3C)c2s1 [Example 399, N-(5-(2-(3,3-dimethylazetidin-1-yl)acetamido)-2-methylpyridin-3-yl)-2-(3-methoxypyridin-4-yl)pyrazolo[5,1-b]thiazole-7-carboxamide] | 1.1 | 0.2
Cc1ncc(NC(=O)CN2CCC23CCC3)cc1NC(=O)c1cnn2cc(-c3ccnc(N4CCOCC4)c3)sc12 [Example 353, N-(5-(2-(1-azaspiro[3.3]heptan-1-yl)acetamido)-2-methylpyridin-3-yl)-2-(2-morpholinopyridin-4-yl)pyrazolo[5,1-b]thiazole-7-carboxamide] | 1.4 | 0.2
Cc1ncc(NC(=O)CN2CCCC[C@H]2C)cc1NC(=O)c1cnn2cc(-c3cnn(CCO)c3)sc12 [Example 33, (R)-2-(1-(2-hydroxyethyl)-1H-pyrazol-4-yl)-N-(2-methyl-5-(2-(2-methyl-piperidin-1-yl)acetamido)pyridin-3-yl)pyrazolo[5,1-b]thiazole-7-carboxamide] | 9.3 | 0.7
Cc1ncc(NC(=O)CN2CCC3(CCC3)C2)cc1NC(=O)c1cnn2cc(-c3cnn(CCO)c3)sc12 [Example 30, N-(5-(2-(6-azaspiro[3.4]octan-6-yl)acetamido)-2-methylpyridin-3-yl)-2-(1-(2-hydroxyethyl)-1H-pyrazol-4-yl)pyrazolo[5,1-b]thiazole-7-carboxamide] | 3.3 | 0.5
Cc1ncc(NC(=O)CN2C[C@@H](CO)O[C@@H](C)C2)cc1NC(=O)c1cnn2cc(-c3cnn(C)c3)sc12 (relative stereo) [Example 378, N-(5-(2-(cis-2-(hydroxymethyl)-6-methylmorpholino)acetamido)-2-methylpyridin-3-yl)-2-(1-methyl-1H-pyrazol-4-yl)pyrazolo[5,1-b]thiazole-7-carboxamide] | 10.2 | 0.8
Cc1ncc(NS(=O)(=O)CCN2CC3CCC2CC3)cc1NC(=O)c1cnn2cc(-c3cnn(C)c3)sc12 [Example 358, N-(5-((2-(2-azabicyclo[2.2.2]octan-2-yl)ethyl)sulfonamido)-2-methylpyridin-3-yl)-2-(1-methyl-1H-pyrazol-4-yl)pyrazolo[5,1-b]thiazole-7-carboxamide] | 1840 | 86.6
Cc1ncc(NC(=O)C2CN(C(C)C)C2)cc1NC(=O)c1cnn2cc(-c3cnn4c3OCCC4)sc12 [Example 348, 2-(6,7-dihydro-5H-pyrazolo[5,1-b][1,3]oxazin-3-yl)-N-(5-(1-isopropylazetidine-3-carboxamido)-2-methylpyridin-3-yl)pyrazolo[5,1-b]thiazole-7-carboxamide] | 4 | 0.4
Cc1ncc(NC(=O)CN2C[C@H](C)O[C@@H](C)C2)cc1NC(=O)c1cnn2cc(-c3c[nH]nc3C)sc12 (relative stereo) [Example 371, N-(5-(2-(trans-2,6-dimethylmorpholino)acetamido)-2-methylpyridin-3-yl)-2-(3-methyl-1H-pyrazol-4-yl)pyrazolo[5,1-b]thiazole-7-carboxamide] | 3 | 0.4
Cc1ncc(NC(=O)CN2CCC3(CC2)CC3)cc1NC(=O)c1cnn2cc(-c3cnn(CCO)c3)sc12 [Example 31, N-(5-(2-(6-azaspiro[2.5]octan-6-yl)acetamido)-2-methylpyridin-3-yl)-2-(1-(2-hydroxyethyl)-1H-pyrazol-4-yl)pyrazolo[5,1-b]thiazole-7-carboxamide] | 5.1 | 0.6
Cc1ncc(NC(=O)C2CCN(C(C)C)C2)cc1NC(=O)c1cnn2cc(-c3cn(C)nc3C)sc12 (centres unmarked) [Example 355, 2-(1,3-dimethyl-1H-pyrazol-4-yl)-N-(5-(1-isopropylpyrrolidine-3-carboxamido)-2-methylpyridin-3-yl)pyrazolo[5,1-b]thiazole-7-carboxamide] | 11.3 | 0.4
COCCn1cc(-c2cn3ncc(C(=O)Nc4cc(NC(=O)C5CN(C(C)C)C5)cnc4C)c3s2)cn1 [Example 342, N-(5-(1-isopropylazetidine-3-carboxamido)-2-methylpyridin-3-yl)-2-(1-(2-methoxyethyl)-1H-pyrazol-4-yl)pyrazolo[5,1-b]thiazole-7-carboxamide] | 15.9 | 0.6
